Experimental data taken from ChEMBL document CHEMBL1921770, “Synthesis and structure-activity relationship (SAR) of (5,7-disubstituted 3-phenylsulfonyl-pyrazolo[1,5-a]pyrimidin-2-yl)-methylamines as potent serotonin 5-HT(6) receptor (5-HT(6)R) antagonists” (J Med Chem, 2011).
Each block holds one molecule with its values, some of them ahead of it. Activity calls are given as the source filed them. The rule behind the calls is not given here.

Experiments:
[1] = target: T1, 5-hydroxytryptamine receptor 6 (Homo sapiens, UniProt P50406); experiment: Inhibition of human recombinant 5-HT6 receptor expressed in human HEK293 cells assessed as inhibition of serotonin-induced cAMP accumulation; format: functional, cell-based
[2] = target: T2, 5-hydroxytryptamine receptor 2C (Homo sapiens) (UniProt P28335); experiment: Inhibition of serotonin 5-HT2C receptor at 1 uM by ligand displacement assay
T2 sequence (whole entry): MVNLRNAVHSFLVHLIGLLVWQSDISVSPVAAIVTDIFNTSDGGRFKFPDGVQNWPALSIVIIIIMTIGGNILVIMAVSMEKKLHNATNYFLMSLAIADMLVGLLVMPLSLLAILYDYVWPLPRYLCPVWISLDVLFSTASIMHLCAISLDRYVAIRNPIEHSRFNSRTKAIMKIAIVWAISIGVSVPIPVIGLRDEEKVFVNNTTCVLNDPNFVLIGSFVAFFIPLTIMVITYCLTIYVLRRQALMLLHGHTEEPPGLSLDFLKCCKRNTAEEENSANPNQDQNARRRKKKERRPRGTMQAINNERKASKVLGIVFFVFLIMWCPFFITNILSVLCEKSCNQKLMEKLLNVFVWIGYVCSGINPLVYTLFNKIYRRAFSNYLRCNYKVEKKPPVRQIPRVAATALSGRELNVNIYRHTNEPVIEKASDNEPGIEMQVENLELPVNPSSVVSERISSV

[3] = target: T1, 5-hydroxytryptamine receptor 6; experiment: Antagonist activity at human recombinant 5-HT6 receptor expressed in human HEK293 cells assessed as inhibition of serotonin-induced cAMP accumulation; format: functional, cell-based; conditions: read-out: pA2 (converted)
[4] = target: T1, 5-hydroxytryptamine receptor 6; experiment: Partial agonist activity at human recombinant 5-HT6 receptor expressed in human HEK293 cells assessed as inhibition of serotonin-induced cAMP accumulation; format: functional, cell-based
[5] = target: 5-hydroxytryptamine receptor 2B (Homo sapiens) (UniProt P41595); experiment: Displacement of[3H]lysergic acid […] 5-HT2B receptor at 1 uM by ligand displacement assay
[6] = target: Muscarinic acetylcholine receptor M4 (Homo sapiens) (UniProt P08173); experiment: Inhibition of muscarinic M4 receptor at 1 uM by ligand displacement assay
[7] = Inhibition of adrenergic alpha1 receptor at 1 uM by ligand displacement assay
[8] = target: Adenosine receptor A2b (Homo sapiens) (UniProt P29275); experiment: Inhibition of adenosine A2B receptor at 1 uM by ligand displacement assay
[9] = target: Histamine H1 receptor (Homo sapiens) (UniProt P35367); experiment: Inhibition of histamine H1 receptor at 1 uM by ligand displacement assay
[10] = target: 5-hydroxytryptamine receptor 4 (Homo sapiens) (UniProt Q13639); experiment: Inhibition of serotonin 5-HT4 receptor at 1 uM by ligand displacement assay
[11] = target: 5-hydroxytryptamine receptor 3A (Homo sapiens) (UniProt P46098); experiment: Inhibition of serotonin 5-HT3 receptor at 1 uM by ligand displacement assay
[12] = Inhibition of dopamine D4.7 receptor at 1 uM by ligand displacement assay
[13] = target: Adenosine receptor A2a (Homo sapiens) (UniProt P29274); experiment: Inhibition of adenosine A2A receptor at 1 uM by ligand displacement assay
[14] = target: 5-hydroxytryptamine receptor 1B (Homo sapiens) (UniProt P28222); experiment: Inhibition of serotonin 5-HT1B receptor at 1 uM by ligand displacement assay
[15] = target: T1, 5-hydroxytryptamine receptor 6; experiment: Displacement of[3H]lysergic acid […] from 5-HT6 receptor at 1 uM by ligand displacement assay
[16] = target: D(1B) dopamine receptor (Homo sapiens) (UniProt P21918); experiment: Inhibition of dopamine D5 receptor at 1 uM by ligand displacement assay
[17] = Inhibition of adrenergic beta receptor at 1 uM by ligand displacement assay
[18] = target: Muscarinic acetylcholine receptor M1 (Homo sapiens) (UniProt P11229); experiment: Inhibition of muscarinic M1 receptor at 1 uM by ligand displacement assay
[19] = target: 5-hydroxytryptamine receptor 2A (Homo sapiens) (UniProt P28223); experiment: Inhibition of serotonin 5-HT2A receptor at 1 uM by ligand displacement assay
[20] = target: 5-hydroxytryptamine receptor 5A (Homo sapiens) (UniProt P47898); experiment: Inhibition of serotonin 5-HT5A receptor at 1 uM by ligand displacement assay
[21] = target: D(4) dopamine receptor (Homo sapiens) (UniProt P21917); experiment: Inhibition of dopamine D4.4 receptor at 1 uM by ligand displacement assay
[22] = target: Adenosine receptor A1 (Homo sapiens) (UniProt P30542); experiment: Inhibition of adenosine A1 receptor at 1 uM by ligand displacement assay
[23] = target: D(1A) dopamine receptor (Homo sapiens) (UniProt P21728); experiment: Inhibition of dopamine D1 receptor at 1 uM by ligand displacement assay
[24] = target: 5-hydroxytryptamine receptor 1A (Homo sapiens) (UniProt P08908); experiment: Inhibition of serotonin 5-HT1A receptor at 1 uM by ligand displacement assay
[25] = target: D(3) dopamine receptor (Homo sapiens) (UniProt P35462); experiment: Inhibition of dopamine D3 receptor at 1 uM by ligand displacement assay
[26] = target: Histamine H2 receptor (Homo sapiens) (UniProt P25021); experiment: Inhibition of histamine H2 receptor at 1 uM by ligand displacement assay
[27] = target: Voltage-gated inwardly rectifying potassium channel KCNH2 (Homo sapiens, UniProt Q12809); experiment: Inhibition of human Erg at 1 uM by ligand displacement assay
[28] = target: Adenosine receptor A3 (Homo sapiens) (UniProt P0DMS8); experiment: Inhibition of adenosine A3 receptor at 1 uM by ligand displacement assay
[29] = target: Histamine H3 receptor (Homo sapiens) (UniProt Q9Y5N1); experiment: Inhibition of histamine H3 receptor at 1 uM by ligand displacement assay
[30] = target: D(2) dopamine receptor (Homo sapiens) (UniProt P14416); experiment: Inhibition of dopamine D2S receptor at 1 uM by ligand displacement assay
[31] = target: Muscarinic acetylcholine receptor M2 (Homo sapiens) (UniProt P08172); experiment: Inhibition of muscarinic M2 receptor at 1 uM by ligand displacement assay
[32] = Inhibition of dopamine D4.2 receptor at 1 uM by ligand displacement assay
[33] = target: Alpha-2A adrenergic receptor (Homo sapiens) (UniProt P08913); experiment: Inhibition of adrenergic alpha2 receptor at 1 uM by ligand displacement assay
[34] = target: Muscarinic acetylcholine receptor M3 (Homo sapiens) (UniProt P20309); experiment: Inhibition of muscarinic M3 receptor at 1 uM by ligand displacement assay
[35] = target: 5-hydroxytryptamine receptor 7 (Homo sapiens) (UniProt P34969); experiment: Inhibition of serotonin 5-HT7 receptor at 1 uM by ligand displacement assay
5-hydroxytryptamine receptor 7 (Homo sapiens), sequence (P34969 whole entry): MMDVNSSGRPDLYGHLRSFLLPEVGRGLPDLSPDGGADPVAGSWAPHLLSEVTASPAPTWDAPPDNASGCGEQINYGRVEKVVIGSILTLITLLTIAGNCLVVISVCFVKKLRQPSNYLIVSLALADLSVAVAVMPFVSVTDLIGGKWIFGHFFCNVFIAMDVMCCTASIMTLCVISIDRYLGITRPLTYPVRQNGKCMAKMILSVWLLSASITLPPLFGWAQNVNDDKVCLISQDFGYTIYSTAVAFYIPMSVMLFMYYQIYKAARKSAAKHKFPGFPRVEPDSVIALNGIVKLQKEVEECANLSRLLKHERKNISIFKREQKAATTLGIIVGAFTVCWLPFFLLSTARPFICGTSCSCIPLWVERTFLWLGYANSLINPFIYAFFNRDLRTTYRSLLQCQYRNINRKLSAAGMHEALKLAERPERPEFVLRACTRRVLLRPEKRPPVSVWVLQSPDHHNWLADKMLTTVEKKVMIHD

T1 sequence (P50406 whole entry): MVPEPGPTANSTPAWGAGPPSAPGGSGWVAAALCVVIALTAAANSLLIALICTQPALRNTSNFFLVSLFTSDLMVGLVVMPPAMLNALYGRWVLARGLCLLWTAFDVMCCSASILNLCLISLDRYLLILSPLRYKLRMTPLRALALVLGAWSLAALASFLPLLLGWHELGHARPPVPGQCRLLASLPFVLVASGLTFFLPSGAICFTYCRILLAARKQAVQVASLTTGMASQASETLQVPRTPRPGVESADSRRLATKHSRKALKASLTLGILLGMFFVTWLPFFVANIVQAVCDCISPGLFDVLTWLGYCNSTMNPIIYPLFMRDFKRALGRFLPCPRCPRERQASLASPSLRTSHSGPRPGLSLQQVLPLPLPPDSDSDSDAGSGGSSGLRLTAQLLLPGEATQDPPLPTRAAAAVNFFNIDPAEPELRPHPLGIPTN
5-hydroxytryptamine receptor 2A (Homo sapiens), sequence (P28223 whole entry): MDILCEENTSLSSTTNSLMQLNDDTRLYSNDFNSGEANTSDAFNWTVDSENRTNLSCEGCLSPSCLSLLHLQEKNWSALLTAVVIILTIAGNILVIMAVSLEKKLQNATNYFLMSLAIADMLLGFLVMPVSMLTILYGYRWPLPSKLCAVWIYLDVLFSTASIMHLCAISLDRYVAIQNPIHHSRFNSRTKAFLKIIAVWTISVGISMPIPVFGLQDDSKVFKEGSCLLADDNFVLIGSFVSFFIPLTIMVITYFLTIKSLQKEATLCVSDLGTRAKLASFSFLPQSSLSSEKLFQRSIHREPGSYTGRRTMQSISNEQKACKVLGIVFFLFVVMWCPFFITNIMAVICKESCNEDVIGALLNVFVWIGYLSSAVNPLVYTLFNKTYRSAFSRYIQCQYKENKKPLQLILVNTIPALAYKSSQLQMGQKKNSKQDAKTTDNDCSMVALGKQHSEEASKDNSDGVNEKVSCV
D(4) dopamine receptor (Homo sapiens), sequence (P21917 whole entry): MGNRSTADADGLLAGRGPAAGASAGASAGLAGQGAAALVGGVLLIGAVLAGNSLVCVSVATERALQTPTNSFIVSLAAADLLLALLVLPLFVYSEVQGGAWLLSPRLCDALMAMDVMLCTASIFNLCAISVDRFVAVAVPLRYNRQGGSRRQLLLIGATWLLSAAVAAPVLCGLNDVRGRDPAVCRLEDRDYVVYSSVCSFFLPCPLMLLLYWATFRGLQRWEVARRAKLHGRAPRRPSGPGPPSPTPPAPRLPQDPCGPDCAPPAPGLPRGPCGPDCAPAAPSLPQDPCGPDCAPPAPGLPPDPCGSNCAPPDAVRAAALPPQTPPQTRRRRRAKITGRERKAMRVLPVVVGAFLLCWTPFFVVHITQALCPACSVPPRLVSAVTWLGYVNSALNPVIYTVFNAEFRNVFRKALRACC
Adenosine receptor A2b (Homo sapiens), sequence (P29275 whole entry): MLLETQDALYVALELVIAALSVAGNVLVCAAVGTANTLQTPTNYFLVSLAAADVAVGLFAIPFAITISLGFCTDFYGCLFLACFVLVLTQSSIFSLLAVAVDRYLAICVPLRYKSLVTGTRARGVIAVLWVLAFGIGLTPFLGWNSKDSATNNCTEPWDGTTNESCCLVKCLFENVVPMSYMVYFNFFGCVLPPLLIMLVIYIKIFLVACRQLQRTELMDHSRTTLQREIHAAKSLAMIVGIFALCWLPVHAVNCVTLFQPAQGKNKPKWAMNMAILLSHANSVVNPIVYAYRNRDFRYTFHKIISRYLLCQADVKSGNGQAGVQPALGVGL
Muscarinic acetylcholine receptor M3 (Homo sapiens), sequence (P20309 whole entry, looked up): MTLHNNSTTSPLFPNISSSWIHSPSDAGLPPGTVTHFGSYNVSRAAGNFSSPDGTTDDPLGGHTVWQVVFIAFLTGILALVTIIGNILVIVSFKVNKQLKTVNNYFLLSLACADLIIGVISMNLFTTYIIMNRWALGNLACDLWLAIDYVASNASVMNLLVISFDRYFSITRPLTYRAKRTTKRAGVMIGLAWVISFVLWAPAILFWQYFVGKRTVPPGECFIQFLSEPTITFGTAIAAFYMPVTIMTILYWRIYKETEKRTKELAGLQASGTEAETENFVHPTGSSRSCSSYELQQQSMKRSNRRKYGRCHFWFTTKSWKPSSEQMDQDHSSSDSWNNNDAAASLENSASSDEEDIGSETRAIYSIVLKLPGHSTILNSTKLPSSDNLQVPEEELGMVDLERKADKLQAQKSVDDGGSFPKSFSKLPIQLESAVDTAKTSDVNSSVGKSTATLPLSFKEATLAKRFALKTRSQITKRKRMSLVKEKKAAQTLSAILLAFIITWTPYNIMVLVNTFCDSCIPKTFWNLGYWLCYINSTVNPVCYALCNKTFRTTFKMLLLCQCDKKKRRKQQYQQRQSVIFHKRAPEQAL
Muscarinic acetylcholine receptor M1 (Homo sapiens), sequence (P11229 whole entry): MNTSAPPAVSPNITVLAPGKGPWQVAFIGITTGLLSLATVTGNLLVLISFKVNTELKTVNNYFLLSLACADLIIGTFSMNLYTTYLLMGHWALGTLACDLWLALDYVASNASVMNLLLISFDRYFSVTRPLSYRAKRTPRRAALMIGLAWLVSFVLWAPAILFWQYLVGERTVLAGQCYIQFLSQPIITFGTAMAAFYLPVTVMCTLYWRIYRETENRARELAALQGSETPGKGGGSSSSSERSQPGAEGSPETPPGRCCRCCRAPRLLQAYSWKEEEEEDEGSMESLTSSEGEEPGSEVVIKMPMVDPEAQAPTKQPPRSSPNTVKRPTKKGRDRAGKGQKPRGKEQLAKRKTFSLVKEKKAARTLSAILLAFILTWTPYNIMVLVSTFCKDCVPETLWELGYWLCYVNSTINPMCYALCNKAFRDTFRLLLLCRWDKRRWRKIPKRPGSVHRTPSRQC
5-hydroxytryptamine receptor 3A (Homo sapiens), sequence (P46098 whole entry): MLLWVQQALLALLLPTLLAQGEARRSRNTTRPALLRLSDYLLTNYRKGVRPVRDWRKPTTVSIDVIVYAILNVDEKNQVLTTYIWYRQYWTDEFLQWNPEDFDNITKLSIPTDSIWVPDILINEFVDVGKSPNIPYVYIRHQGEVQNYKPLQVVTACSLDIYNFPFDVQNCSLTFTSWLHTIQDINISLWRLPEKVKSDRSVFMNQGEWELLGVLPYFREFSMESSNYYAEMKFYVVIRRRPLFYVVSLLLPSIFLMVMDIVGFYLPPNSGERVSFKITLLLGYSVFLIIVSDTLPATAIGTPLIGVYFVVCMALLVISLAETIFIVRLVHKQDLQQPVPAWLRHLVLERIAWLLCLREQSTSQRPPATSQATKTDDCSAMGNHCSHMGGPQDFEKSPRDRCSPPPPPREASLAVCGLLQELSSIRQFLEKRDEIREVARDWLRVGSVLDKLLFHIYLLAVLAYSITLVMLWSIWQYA
D(3) dopamine receptor (Homo sapiens), sequence (P35462 whole entry): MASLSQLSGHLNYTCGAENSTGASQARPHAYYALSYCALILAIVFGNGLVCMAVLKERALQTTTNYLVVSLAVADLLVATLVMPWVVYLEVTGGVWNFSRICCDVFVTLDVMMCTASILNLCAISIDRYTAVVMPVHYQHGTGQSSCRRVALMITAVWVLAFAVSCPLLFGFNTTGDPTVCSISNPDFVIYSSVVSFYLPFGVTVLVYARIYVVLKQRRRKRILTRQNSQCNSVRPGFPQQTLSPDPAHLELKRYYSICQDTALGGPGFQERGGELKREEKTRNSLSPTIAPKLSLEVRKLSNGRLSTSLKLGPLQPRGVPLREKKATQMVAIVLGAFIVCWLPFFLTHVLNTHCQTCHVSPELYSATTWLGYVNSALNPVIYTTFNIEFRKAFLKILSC
Adenosine receptor A1 (Homo sapiens), sequence (P30542 whole entry): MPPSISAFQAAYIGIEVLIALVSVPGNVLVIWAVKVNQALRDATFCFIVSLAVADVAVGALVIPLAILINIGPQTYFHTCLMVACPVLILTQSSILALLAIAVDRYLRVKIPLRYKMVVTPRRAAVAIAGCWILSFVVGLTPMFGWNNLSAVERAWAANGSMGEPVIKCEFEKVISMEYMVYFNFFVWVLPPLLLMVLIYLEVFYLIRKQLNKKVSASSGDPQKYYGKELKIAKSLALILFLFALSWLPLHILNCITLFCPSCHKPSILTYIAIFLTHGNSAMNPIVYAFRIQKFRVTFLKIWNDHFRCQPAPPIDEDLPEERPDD
Adenosine receptor A2a (Homo sapiens), sequence (P29274 whole entry): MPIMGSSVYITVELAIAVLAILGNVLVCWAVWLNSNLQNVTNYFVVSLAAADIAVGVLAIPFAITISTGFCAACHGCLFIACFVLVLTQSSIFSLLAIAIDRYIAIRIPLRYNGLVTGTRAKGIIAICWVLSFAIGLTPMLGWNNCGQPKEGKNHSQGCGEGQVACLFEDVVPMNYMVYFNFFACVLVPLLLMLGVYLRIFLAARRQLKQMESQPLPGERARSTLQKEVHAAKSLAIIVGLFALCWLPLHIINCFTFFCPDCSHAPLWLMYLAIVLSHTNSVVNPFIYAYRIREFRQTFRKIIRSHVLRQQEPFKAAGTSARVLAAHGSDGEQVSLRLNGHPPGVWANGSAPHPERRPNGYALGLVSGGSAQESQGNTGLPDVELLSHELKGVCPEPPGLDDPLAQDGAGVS

Ki ([1]; read-out: pKi (converted)): 0.219 nM
SMILES: CNc1nn2c(N)cc(C)nc2c1S(=O)(=O)c1cccc(Cl)c1

Ki ([1]; read-out: pKi (converted)): 1.82 nM
SMILES: CNc1nn2c(CN(C)C)cc(C)nc2c1S(=O)(=O)c1ccccc1

Ki ([1]; read-out: pKi (converted)): 0.417 nM
SMILES: CNc1nn2c(C)c(CN(C)C)c(C)nc2c1S(=O)(=O)c1cccc(Cl)c1

Ki ([1]; read-out: pKi (converted)): 2.09 nM
SMILES: CNc1nn2c(C)c(CCN(C)C)c(C)nc2c1S(=O)(=O)c1ccccc1

Ki ([1]; read-out: pKi (converted)): 0.646 nM
SMILES: CNc1nn2c(C)c(CN)c(C)nc2c1S(=O)(=O)c1ccccc1

Ki ([1]; read-out: pKi (converted)): 1.86 nM
SMILES: CNc1nn2c(CN)cc(C)nc2c1S(=O)(=O)c1ccccc1

Ki ([1]; read-out: pKi (converted)): 4.68 nM
SMILES: CNc1nn2c(C)c(NC(C)=O)c(C)nc2c1S(=O)(=O)c1ccccc1

Ki ([1]; read-out: pKi (converted)): 0.891 nM
SMILES: CNc1nn2c(C)c(CN(C)C)c(C)nc2c1S(=O)(=O)c1cccc(F)c1

Ki ([1]; read-out: pKi (converted)): 0.977 nM
inhibition [2]: inactive
SMILES: CNc1nn2c(C)cc(CN)nc2c1S(=O)(=O)c1ccccc1

Ki ([1]; read-out: pKi (converted)): 0.55 nM
SMILES: CNc1nn2c(C)c(CN)c(C)nc2c1S(=O)(=O)c1cccc(Cl)c1

Ki ([1]; read-out: pKi (converted)): 0.209 nM
inhibition [2]: inactive
SMILES: CNc1nn2c(C)c(N(C)C)c(C)nc2c1S(=O)(=O)c1ccccc1

Ki ([1]; read-out: pKi (converted)): 0.575 nM
SMILES: CNc1nn2c(NC)cc(C)nc2c1S(=O)(=O)c1ccccc1

Ki ([1]; read-out: pKi (converted)): 0.525 nM
inhibition [2]: inactive
Kb [3]: 0.398 nM
SMILES: CNc1nn2c(C)c(N)c(C)nc2c1S(=O)(=O)c1ccccc1

Ki ([1]; read-out: pKi (converted)): 0.263 nM
SMILES: CNc1nn2c(C)cc(C)nc2c1S(=O)(=O)c1ccccc1

Ki [4]: 33.9 nM
SMILES: CNc1nn2c(CCN(C)C)cc(C)nc2c1S(=O)(=O)c1ccccc1

inhibition [5]: inactive
inhibition [6]: inactive
inhibition [7]: inactive
Ki ([1]; read-out: pKi (converted)): 0.302 nM
inhibition [8]: inactive
inhibition [9]: inactive
inhibition [10]: inactive
inhibition [11]: inactive
inhibition [12]: inactive
inhibition [13]: inactive
inhibition [2]: 50%
inhibition [14]: inactive
inhibition [15]: 100%
inhibition [16]: inactive
inhibition [17]: inactive
inhibition [18]: inactive
inhibition [19]: inactive
inhibition [20]: inactive
Kb [3]: 0.501 nM
inhibition [21]: inactive
inhibition [22]: inactive
inhibition [23]: inactive
inhibition [24]: inactive
inhibition [25]: inactive
inhibition [26]: inactive
inhibition [28]: inactive
inhibition [29]: inactive
inhibition [30]: inactive
inhibition [31]: inactive
inhibition [32]: inactive
inhibition [33]: inactive
inhibition [34]: inactive
inhibition [35]: inactive
SMILES: CNc1nn2c(N)cc(C)nc2c1S(=O)(=O)c1ccccc1
inhibition (INH) [27]: Not Active

Ki ([1]; read-out: pKi (converted)): 0.708 nM
SMILES: CNc1nn2c(C)c(CN(C)C)c(C)nc2c1S(=O)(=O)c1ccccc1

Ki ([1]; read-out: Ki): 112 nM
SMILES: CNc1nn2c(NCCCN(C)C)cc(C)nc2c1S(=O)(=O)c1ccccc1

Ki [4]: 3.09 nM
Kb [3]: 3.98 nM
SMILES: CNc1nn2c(CCN)cc(C)nc2c1S(=O)(=O)c1ccccc1

Ki ([1]; read-out: pKi (converted)): 18.6 nM
SMILES: CNc1nn2c(N)c(Cl)c(C)nc2c1S(=O)(=O)c1cccc(Cl)c1

Ki ([1]; read-out: pKi (converted)): 0.347 nM
SMILES: CNc1nn2c(N(C)C)cc(C)nc2c1S(=O)(=O)c1ccccc1

Ki ([1]; read-out: pKi (converted)): 69.2 nM
SMILES: CNc1nn2c(NCCN(C)C)cc(C)nc2c1S(=O)(=O)c1ccccc1

Ki ([1]; read-out: pKi (converted)): 22.4 nM
SMILES: CNc1nn2c(N(C)CCN(C)C)cc(C)nc2c1S(=O)(=O)c1ccccc1

Ki ([1]; read-out: pKi (converted)): 16.6 nM
SMILES: CNc1nn2c(N3CCOCC3)cc(C)nc2c1S(=O)(=O)c1ccccc1

Ki ([1]; read-out: Ki): 0.85 nM
SMILES: CSc1nn2c(N3CCNCC3)c3c(nc2c1S(=O)(=O)c1ccccc1)CCC3

Ki ([1]; read-out: Ki): 0.14 nM
SMILES: CNc1nn2c(N)c(Cl)c(C)nc2c1S(=O)(=O)c1ccccc1
